In US8242152B2, “Use of 4-[(4-thiazolyl)phenoxy]alkoxy-benzamidine derivatives for the prophylaxis and treatment of osteoporosis” (Dong Wha Pharmaceutical Co., Ltd., priority 2001, dated 2012):
Entries after “also recorded” stand apart in the source; their conditions may differ.

Columns and labels:
[1] = system: rabbit osteoclasts; experiment: TRAP(+) MNC formation in isolated rabbit osteoclast cultures, single treatment without LTB4 (Example 6); assay type: cell-based
Procedure: (§1) Rabbit osteoclasts were isolated as described by Victoria Tai's report (Doctoral Dissertation, 1997, Graduate Department of Pharmacology, University of Toronto) and Rraser P. Coxon et al. (Methods in Molecular Medicine, vol 80). Neonatal rabbits (New Zealand White) were sacrificed by ether-inhaling method under a hood. The removed long bones were dissected free of attached soft tissues and placed into ice-cold PBS. The long bones were cut longitudinally and mechanically curetted in 10 ml medium 199 with antibiotics (10 ug/ml penicillin G and 50 ug/ml gentamycin) in a glass Petri dish. Each bone was curetted with a scalpel blade and was finely minced. The fragments were then vigorously agitated by pipetting up and down using a pasteur pipette and vortex-mixed for 30 seconds. The fragments were allowed to settle and the cell suspension was then transferred to a 50 ml tube and the previous step repeated three times to a total volume of 40 ml. The bone fragments were allowed to settle (>1 min). The cell suspension was then transferred to a new 50 ml tube, passed through a 40 um cell strainer and centrifuged at 200 g for 8 minutes. The supernatant was removed and the pellet was immediately resuspended in α-MEM with 2% FBS (bicarbonate buffered medium).
(§2) 40 uL droplets of osteoclast-containing suspensions were plated onto 60 mm tissue culture plastic dishes or on dentine slices in 96-well microtiter plates in 2% medium. The cells were allowed ninety minutes for attachment before the addition of 2 mL α-MEM with 2% FBS. After 24 hr culture, cells were washed to remove non-adherent cells and replaced with fresh medium as describes below.
After 24 hr in culture, the medium was replaced with fresh medium containing control, LTB4 receptor antagonists (1000 nM), DW1350 (10, 100 and 1000 nM) or LTB4 (100 nM) and the cultures were continued for an additional 48 hrs.
(§3) All cells were cultured at 37° C. in a humidified atmosphere of 95% air and 5% CO2 in bicarbonate buffered medium at pH 7.4.
(§4) Differentiated osteoclasts are multinucleated cells and have specific enzyme activity, such as ‘tartrate-resistant acid phosphatase (TRAP)’. Therefore, Osteoclast formation was determined by counting the number of TRAP-positive multinucleated cells (TRAP(+) MNCs).
(§5) After culture, the cells were fixed with 10% neutral buffered formalin for 30 min at 4° C., washed twice in distilled water and stained for TRAP activity by incubating with substrate. The number of TRAP(+)MNC with more than 2 nuclei was counted under photomicroscope.
(§6) Results were expressed as mean number of TRAP(+)MNC±SD of All experiments were done at least twice. Statistical analysis was performed for each experiment by student t-test.

[2] = system: LTB4-induced osteoclast formation; experiment: LTB4-induced osteoclast formation in rabbit osteoclast cultures, co-treatment and pre-treatment (Example 6); assay type: cell-based; details: dentin slices
Procedure: as §1, §2
After 24 hr in culture, the medium was removed and replaced with fresh medium containing both LTB4 receptor antagonist (1000 nM) and LTB4 (100 nM) or both DW1350 (1000 nM) and LTB4 (100 nM). The cultures were continued for an additional 48 hrs.
After 6 hrs in culture, the medium was removed and cells were pretreated with LTB4 receptor antagonists such as LY292728 (Journal of Medical Chemistry, 1995, vol. 38, No. 10, p 4411-4432), SB209247 (Journal of Medical Chemistry, 1996, vol. 39, No. 19, p 3837-3841), LY293111(Journal of Medical Chemistry, 1995, vol. 38, No. 10, p 4411-4432) and LY223982 (Journal of Medical Chemistry, 1993, vol. 36, p 3333-3340) or DW1350-containing medium and culture continued for 18 hrs. The medium was replaced with medium containing both LTB4 receptor antagonist and LTB4 or DW1350 and LTB4. The cultures were continued for an additional 48 hrs.
as §3, §4, §5, §6

Structure (SMILES): Cc1nc(-c2ccc(OCCCCCOc3ccc(C(=N)NO)cc3)cc2)c(C(C)C)s1 [DW1350, N-hydroxy-4-{5-[4-(5-isopropyl-2-methyl-1,3-thiazol-4-yl)phenoxy]pentoxy}-benzamidine]
- number of TRAP(+) MNCs / osteoclast formation ([1]; 1000 nM, single treatment without LTB4, dentine slices, 48 hrs (FIG. 3-8)): significant inhibition on the formation of osteoclasts; also recorded: significantly inhibited it
- cytotoxic effect based on cell morphology ([1]; 10˜1000 nM, 48 hours): No cytotoxic effect based on cell morphology was not observed
- number of TRAP(+) MNCs ([1]; 10˜1000 nM, 48 hours, tissue culture dish, single treatment (FIG. 1, 2)): significantly decreased the number of TRAP(+) MNCs in a dose-dependent manner
- LTB4-stimulated osteoclast formation ([2]; pre-treatment 18 hrs, then 1000 nM compound + 100 nM LTB4 for 48 hrs): significant inhibition on LTB4-stimulated osteoclast formation
- LTB4-stimulated osteoclast formation ([2]; simultaneous treatment: 1000 nM compound + 100 nM LTB4, 48 hrs): significant inhibition on LTB4-stimulated osteoclast formation
